Key:
[1] = system: normal NK cells expanded with K562-aAPC; test: percent inhibition of viability; higher = more inhibition; conditions: 72 h, IL-2 2.5 ng/mL
Protocol: (§1)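 Drug sensitivity and resistance testing on K562-aAPC-expanded normal NK cells: 5 concentrations (10-fold steps over a 10,000-fold range), 72 h at 37 °C, viability by CellTiter-Glo normalised to DMSO and benzethonium chloride controls; DSS from the fitted curve.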

[2] = system: normal primary NK cells, pool 3 (3 donors) (IL-2 2.5 ng/mL); test: as above; conditions: 72 h
[3] = system: normal primary NK cells, pool 1 (3 donors), resting (IL-2 0 ng/mL); test: as above; conditions: 72 h
[4] = system: normal primary NK cells, pool 2 (3 donors) (IL-2 2.5 ng/mL); test: as above; conditions: 72 h
SNK-6 (IL-2 2.5 ng/mL) [5] = test: as above; conditions: 72 h
IMC-1 (IL-2 20 ng/mL) [6] = test: as above; conditions: 72 h
NK-92 (IL-2 2.5 ng/mL) [7] = test: as above; conditions: 72 h
NK-YS (IL-2 2.5 ng/mL) [8] = test: as above; conditions: 72 h
NKL (IL-2 2.5 ng/mL) [9] = test: as above; conditions: 72 h
[10] = system: normal primary NK cells, pool 1 (3 donors) (IL-2 2.5 ng/mL); test: as above; conditions: 72 h
KHYG-1 (IL-2 2.5 ng/mL) [11] = test: as above; conditions: 72 h
DERL-7 (IL-2 2.5 ng/mL) [12] = test: as above; conditions: 72 h
KAI3 (IL-2 2.5 ng/mL) [13] = test: as above; conditions: 72 h
YT (IL-2 2.5 ng/mL) [14] = test: as above; conditions: 72 h
[15] = system: normal NK cells expanded with K562-aAPC; test: drug sensitivity score (DSS) (DSS units); higher = more sensitive; extreme values may be limits of the assay; conditions: 72 h; IL-2 2.5 ng/mL
Protocol: as §1

[16] = system: normal primary NK cells, pool 3 (3 donors) (IL-2 2.5 ng/mL); test: as above; conditions: 72 h
[17] = system: normal primary NK cells, pool 1 (3 donors), resting (IL-2 0 ng/mL); test: as above; conditions: 72 h
[18] = system: normal primary NK cells, pool 2 (3 donors) (IL-2 2.5 ng/mL); test: as above; conditions: 72 h
SNK-6 (IL-2 2.5 ng/mL) [19] = test: as above; conditions: 72 h
IMC-1 (IL-2 20 ng/mL) [20] = test: as above; conditions: 72 h
NK-92 (IL-2 2.5 ng/mL) [21] = test: as above; conditions: 72 h
NK-YS (IL-2 2.5 ng/mL) [22] = test: as above; conditions: 72 h
NKL (IL-2 2.5 ng/mL) [23] = test: as above; conditions: 72 h
[24] = system: normal primary NK cells, pool 1 (3 donors) (IL-2 2.5 ng/mL); test: as above; conditions: 72 h
KHYG-1 (IL-2 2.5 ng/mL) [25] = test: as above; conditions: 72 h
DERL-7 (IL-2 2.5 ng/mL) [26] = test: as above; conditions: 72 h
KAI3 (IL-2 2.5 ng/mL) [27] = test: as above; conditions: 72 h
YT (IL-2 2.5 ng/mL) [28] = test: as above; conditions: 72 h

## Cc1nc(NC(=O)N2CCC[C@H]2C(N)=O)sc1-c1ccnc(C(C)(C)C(F)(F)F)c1 [Alpelisib] (max concentration tested 2500 nM)
[1]; 0.25 nM
  percent inhibition of viability: 0.72%
[1]; 2.5 nM
  percent inhibition of viability: 1.85%
[1]; 25 nM
  percent inhibition of viability: -0.5%
[1]; 250 nM
  percent inhibition of viability: 3.19%
[1]; 2500 nM
  percent inhibition of viability: 30.6%
[2]; 0.25 nM
  percent inhibition of viability: -7.64%
[2]; 2.5 nM
  percent inhibition of viability: -5.69%
[2]; 25 nM
  percent inhibition of viability: -6.05%
[2]; 250 nM
  percent inhibition of viability: 0.32%
[2]; 2500 nM
  percent inhibition of viability: 2.93%
[3]; 0.25 nM
  percent inhibition of viability: -10.5%
[3]; 2.5 nM
  percent inhibition of viability: 5.01%
[3]; 25 nM
  percent inhibition of viability: -8.93%
[3]; 250 nM
  percent inhibition of viability: 6.1%
[3]; 2500 nM
  percent inhibition of viability: 10.3%
[4]; 0.25 nM
  percent inhibition of viability: -4.3%
[4]; 2.5 nM
  percent inhibition of viability: -1.23%
[4]; 25 nM
  percent inhibition of viability: 0.06%
[4]; 250 nM
  percent inhibition of viability: 3.89%
[4]; 2500 nM
  percent inhibition of viability: 11.4%
SNK-6 (IL-2 2.5 ng/mL) [5]; 0.25 nM
  percent inhibition of viability: -6.11%
SNK-6 (IL-2 2.5 ng/mL) [5]; 2.5 nM
  percent inhibition of viability: 8.58%
SNK-6 (IL-2 2.5 ng/mL) [5]; 25 nM
  percent inhibition of viability: 10.5%
SNK-6 (IL-2 2.5 ng/mL) [5]; 250 nM
  percent inhibition of viability: 15.4%
SNK-6 (IL-2 2.5 ng/mL) [5]; 2500 nM
  percent inhibition of viability: 29%
IMC-1 (IL-2 20 ng/mL) [6]; 0.25 nM
  percent inhibition of viability: 3.85%
IMC-1 (IL-2 20 ng/mL) [6]; 2.5 nM
  percent inhibition of viability: 3.43%
IMC-1 (IL-2 20 ng/mL) [6]; 25 nM
  percent inhibition of viability: 5.77%
IMC-1 (IL-2 20 ng/mL) [6]; 250 nM
  percent inhibition of viability: 4.62%
IMC-1 (IL-2 20 ng/mL) [6]; 2500 nM
  percent inhibition of viability: 5.3%
NK-92 (IL-2 2.5 ng/mL) [7]; 0.25 nM
  percent inhibition of viability: -1.19%
NK-92 (IL-2 2.5 ng/mL) [7]; 2.5 nM
  percent inhibition of viability: 0.59%
NK-92 (IL-2 2.5 ng/mL) [7]; 25 nM
  percent inhibition of viability: 11.2%
NK-92 (IL-2 2.5 ng/mL) [7]; 250 nM
  percent inhibition of viability: 7.16%
NK-92 (IL-2 2.5 ng/mL) [7]; 2500 nM
  percent inhibition of viability: 16.2%
NK-YS (IL-2 2.5 ng/mL) [8]; 0.25 nM
  percent inhibition of viability: -0.06%
NK-YS (IL-2 2.5 ng/mL) [8]; 2.5 nM
  percent inhibition of viability: -1.74%
NK-YS (IL-2 2.5 ng/mL) [8]; 25 nM
  percent inhibition of viability: 4.37%
NK-YS (IL-2 2.5 ng/mL) [8]; 250 nM
  percent inhibition of viability: 2.5%
NK-YS (IL-2 2.5 ng/mL) [8]; 2500 nM
  percent inhibition of viability: 12.7%
NKL (IL-2 2.5 ng/mL) [9]; 0.25 nM
  percent inhibition of viability: -4.18%
NKL (IL-2 2.5 ng/mL) [9]; 2.5 nM
  percent inhibition of viability: 0.03%
NKL (IL-2 2.5 ng/mL) [9]; 25 nM
  percent inhibition of viability: 10.1%
NKL (IL-2 2.5 ng/mL) [9]; 250 nM
  percent inhibition of viability: 5.23%
NKL (IL-2 2.5 ng/mL) [9]; 2500 nM
  percent inhibition of viability: 12.8%
[10]; 0.25 nM
  percent inhibition of viability: -6.99%
[10]; 2.5 nM
  percent inhibition of viability: -1.42%
[10]; 25 nM
  percent inhibition of viability: -4.27%
[10]; 250 nM
  percent inhibition of viability: 3.43%
[10]; 2500 nM
  percent inhibition of viability: 6.48%
KHYG-1 (IL-2 2.5 ng/mL) [11]; 0.25 nM
  percent inhibition of viability: -0.82%
KHYG-1 (IL-2 2.5 ng/mL) [11]; 2.5 nM
  percent inhibition of viability: 0.62%
KHYG-1 (IL-2 2.5 ng/mL) [11]; 25 nM
  percent inhibition of viability: 4.26%
KHYG-1 (IL-2 2.5 ng/mL) [11]; 250 nM
  percent inhibition of viability: 2.48%
KHYG-1 (IL-2 2.5 ng/mL) [11]; 2500 nM
  percent inhibition of viability: 8.78%
DERL-7 (IL-2 2.5 ng/mL) [12]; 0.25 nM
  percent inhibition of viability: -4.58%
DERL-7 (IL-2 2.5 ng/mL) [12]; 2.5 nM
  percent inhibition of viability: -9.56%
DERL-7 (IL-2 2.5 ng/mL) [12]; 25 nM
  percent inhibition of viability: -0.97%
DERL-7 (IL-2 2.5 ng/mL) [12]; 250 nM
  percent inhibition of viability: -2.79%
DERL-7 (IL-2 2.5 ng/mL) [12]; 2500 nM
  percent inhibition of viability: 25.6%
KAI3 (IL-2 2.5 ng/mL) [13]; 0.25 nM
  percent inhibition of viability: 6.58%
KAI3 (IL-2 2.5 ng/mL) [13]; 2.5 nM
  percent inhibition of viability: 6.32%
KAI3 (IL-2 2.5 ng/mL) [13]; 25 nM
  percent inhibition of viability: 4.01%
KAI3 (IL-2 2.5 ng/mL) [13]; 250 nM
  percent inhibition of viability: 8.23%
KAI3 (IL-2 2.5 ng/mL) [13]; 2500 nM
  percent inhibition of viability: 30.4%
YT (IL-2 2.5 ng/mL) [14]; 0.25 nM
  percent inhibition of viability: -0.82%
YT (IL-2 2.5 ng/mL) [14]; 2.5 nM
  percent inhibition of viability: 0.14%
YT (IL-2 2.5 ng/mL) [14]; 25 nM
  percent inhibition of viability: 1.96%
YT (IL-2 2.5 ng/mL) [14]; 250 nM
  percent inhibition of viability: 2.35%
YT (IL-2 2.5 ng/mL) [14]; 2500 nM
  percent inhibition of viability: 13%
[15]
  drug sensitivity score: 1.85
[16]
  drug sensitivity score: 0
[17]
  drug sensitivity score: 0.03
[18]
  drug sensitivity score: 0.14
SNK-6 (IL-2 2.5 ng/mL) [19]
  drug sensitivity score: 3.22
IMC-1 (IL-2 20 ng/mL) [20]
  drug sensitivity score: 0
NK-92 (IL-2 2.5 ng/mL) [21]
  drug sensitivity score: 0.74
NK-YS (IL-2 2.5 ng/mL) [22]
  drug sensitivity score: 0.18
NKL (IL-2 2.5 ng/mL) [23]
  drug sensitivity score: 0.2
[24]
  drug sensitivity score: 0
KHYG-1 (IL-2 2.5 ng/mL) [25]
  drug sensitivity score: 0
DERL-7 (IL-2 2.5 ng/mL) [26]
  drug sensitivity score: 0.82
KAI3 (IL-2 2.5 ng/mL) [27]
  drug sensitivity score: 2.35
YT (IL-2 2.5 ng/mL) [28]
  drug sensitivity score: 0.26
